For one molecule, Kd results are on record in article PMC3229521, “Engineering Genetically Encoded Nanosensors for Real-Time In Vivo Measurements of Citrate Concentrations” (PLoS ONE, 2011).

Counter-ions that a name gives are not always drawn.

What all share (experiment): Citrate titration of purified FRET nanosensors in a fluorescence plate reader (excitation 433 nm, Venus/CFP emission ratio 530/488 nm) in 20 mM MOPS, 20 mM NaCl, pH 7, fitted to a single site binding curve.
Conditions in all cases: n = 2

The target in one assay is T1, CIT0.5m (Klebsiella pneumoniae, UniProt P52687, K120A/R92A).
T1 construct: gene citA; CitA residues 6-130 inserted between CFP and Venus (pGW1, pRSET-based), His-tag purified
T1 sequence (P52687 49-173 R92A/K120A): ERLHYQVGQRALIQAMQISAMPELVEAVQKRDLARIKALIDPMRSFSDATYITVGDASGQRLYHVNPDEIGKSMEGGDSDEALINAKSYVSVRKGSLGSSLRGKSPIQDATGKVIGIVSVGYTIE
How it is done: (§1) Next, we thoroughly tested the newly created nanosensor CFP-CitA6-130-Venus in vitro. We determined the binding properties by mixing the sensor with 0.5 to 1000 µM citrate. The obtained ratios were fitted to a single site binding curve as described in the methods section. We determined the KD, the ligand concentration at half-maximal saturation, to be 8 µM, which is very close to the value determined by Gerharz et al (2003) using isothermal titration calorimetry to characterize the purified protein [25]. The reproducibility between different batches of proteins extraction was excellent, with ratios in general not differing by more than 5%. A crucial feature for in vivo application is specificity. We thus exposed the nanosensor to a variety of structurally related organic acids including isocitrate, aconitate, α-ketoglutarate, succinate and pyruvate in presence or absence of citrate. […] In the case of isocitrate, we observed an effect only at concentrations above 1 mM (Figure 2 B) in absence of citrate, which by far exceeds the concentration typically observed by metabolomics in microbes. Also, the apparent affinity for citrate was not modified in the presence of isocitrate or aconitate (data not shown), which excludes competitive binding. After confirming the high specificity of the sensor we tested pH stability, which is crucial when aiming to study certain intracellular compartments (Figure S2 A). […] Therefore, the new nanosensor should be functional in most compartments, however it is not suitable for highly acidic compartments such as endosomes or vacuoles. We also tested the effect of high salt concentrations as typically observed in cells. […] Thus, as has been previously observed when comparing nanosensors in vitro and in vivo [13], [23], we can expect the observed fluorescence intensity ratio in vivo to be lower than under assay conditions. The KD and the dynamic range, however, were not altered, and thus relative changes in citrate concentrations can still be monitored in vivo.
(§2) The natural receptor CitA is highly sensitive and detects low concentrations of citrate in the periplasmic environment and thus has a very high affinity for its substrate. For application as an intracellular sensor a saturation concentration of approximately 100 µM appeared too low given the estimates of intracellular concentrations of citrate by metabolomics approaches in the mid micromolar to low millimolar range [3]. We therefore engineered the affinity of the nanosensor for in vivo applications. Gerharz et al systematically investigated residues of the CitA sensor domain involved in citrate binding. Replacement of positively charged amino acids with alanine led to decreased affinity. We chose five of the reported point mutations and introduced them into the sensor CitA6-130. We determined binding constants and total FRET ratios from two independent extractions (Table 1). The binding constants were qualitatively in good agreement with the observations of Gerharz et al., though in some cases we observed a much larger decrease of affinity. This might be due to the different measurement techniques, a different behaviour of the truncated and sandwiched protein compared to the isolated full-length protein, or to the minor differences we found in the sequence compared to the published Klebsiella CitA gene (sequence of the final sensor can be found in Document S1). […] Decreasing the affinity for the designated substrate bears the risk of also reducing specificity. We therefore tested all mutated sensors for binding of isocitrate and aconitate, the most closely related compounds. […] Also, pH and salt sensitivity were similar to the original sensor (data not shown).
(§3) All in vitro assays were performed in a TECAN Infinite 200 plate reader (TECAN, Austria) in 96 well format (modified from). Proteins, reagents and ligands were dissolved in assay buffer (20 mM Mops, 20 mM NaCl, pH 7 unless specified otherwise). […]

The target in the next assay is T2, CIT1.8m (Klebsiella pneumoniae, UniProt P52687, R150A).
T2 construct: gene citA; CitA residues 6-130 inserted between CFP and Venus (pGW1, pRSET-based), His-tag purified
T2 sequence (P52687 49-173 R150A): T1 sequence (P52687 49-173 R92A/K120A)
How it is done:
as §1, §2, §3

The next assay deals with T3, CIT32μ (Klebsiella pneumoniae, UniProt P52687, K135A).
T3 construct: gene citA; CitA residues 6-130 inserted between CFP and Venus (pGW1, pRSET-based), His-tag purified
T3 sequence (P52687 49-173 K135A): T1 sequence (P52687 49-173 R92A/K120A)
How it is done:
as §1, §2, §3

For the next assay, the target named is T4, CIT50μ (Klebsiella pneumoniae, UniProt P52687, R92A).
T4 construct: gene citA; CitA residues 6-130 inserted between CFP and Venus (pGW1, pRSET-based), His-tag purified
T4 sequence (P52687 49-173 R92A): T1 sequence (P52687 49-173 R92A/K120A)
As for the experimental part:
as §1, §2, §3

For assay [1], the target named is T5, CIT8μ (CFP-CitA6-130-Venus) (Klebsiella pneumoniae, UniProt P52687).
T5 construct: gene citA; CitA residues 6-130 inserted between CFP and Venus (pGW1, pRSET-based), His-tag purified
T5 sequence (P52687 50-174): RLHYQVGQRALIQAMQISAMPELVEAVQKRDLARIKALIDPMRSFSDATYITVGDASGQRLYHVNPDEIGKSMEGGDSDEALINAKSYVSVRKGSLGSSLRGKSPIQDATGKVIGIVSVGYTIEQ
How it is done:
as §1, §2, §3

Another assay concerns the target T6, CIT96μ (Klebsiella pneumoniae, UniProt P52687, K120A).
T6 construct: gene citA; CitA residues 6-130 inserted between CFP and Venus (pGW1, pRSET-based), His-tag purified
T6 sequence (P52687 49-173 K120A): T1 sequence (P52687 49-173 R92A/K120A)
How it is done:
as §1, §2, §3

A word on the Kd: it is the free concentration of one partner at which half of the binding sites on the other are occupied at equilibrium, for simple one-to-one binding. Turning to `O=C(O)CC(O)(CC(=O)O)C(=O)O` [citrate, citrate (citric acid)], the dissociation constant (Kd) on CIT0.5m was found to be 470 µM; at CIT1.8m, 1760 µM; at CIT32μ it was 32 µM; on CIT50μ, 50 µM; in assay [1] it was 8 µM; on CIT96μ, 96 µM.
